From patent US20090054392A1, “NAPHTHYLPYRIMIDINE, NAPHTHYLPYRAZINE AND NAPHTHYLPYRIDAZINE ANALOGS AND THEIR USE AS AGONISTS OF THE WNT-BETA-CATENIN CELLULAR MESSAGING SYSTEM” (Wyeth, priority 2007, published 2009)
Like-named read-outs stand apart in the source and are kept apart here.

System: Dkk1-LRP5-TCF-Luciferase
Assay: Functional Dkk1-LRP5-TCF-Luciferase Assay in U2OS Cells
Conditions: for A = MAX FOLD Induction/DMSO CONTROL: maximum fold induction over DMSO control; for fold induction at 2 µM: read-out: B = TCF ACTIVITY/DMSO CONTROL Fold induction @ 2.0 uM, 2.0 uM compound; for fold induction at 20 µM: read-out: C = TCF ACTIVITY/DMSO CONTROL Fold induction @ 20.0 uM, 20.0 uM compound

SMILES	A = MAX FOLD Induction/DMSO CONTROL	fold induction at 2 µM (Homo sapiens, U2OS)	fold induction at 20 µM (Homo sapiens, U2OS)	also measured
N[C@@H]1[C@H]2CN(c3nccc(-c4ccc5ccccc5c4)n3)C[C@@H]12	5.480 fold	–	–	EC50: 4 µM; B = TCF ACTIVITY/DMSO CONTROL Fold induction @ 2.0 uM (2.0 uM compound): 1.920 fold
CCN(CC)C(=O)N(C)CCN(C)[C@@H]1CCN(c2nccc(-c3ccc4ccccc4c3)n2)C1 [1,1-diethyl-3-methyl-3-[2-(methyl{(3R)-1-[4-(2-naphthyl)pyrimidin-2-yl]pyrrolidin-3-yl}amino)ethyl]urea]	–	1.93	–	–
COc1ccccc1-c1ccc2cc(-c3ccnc(N4CCC(CN)CC4)n3)ccc2c1 [1-(1-{4-[6-(2-methoxyphenyl)-2-naphthyl]pyrimidin-2-yl}piperidin-4-yl)methanamine]	–	1.88	–	–
NCC1CCN(c2nccc(-c3ccc4cc(-c5cccs5)ccc4c3)n2)CC1 [1-(1-{4-[6-(2-thienyl)-2-naphthyl]pyrimidin-2-yl}piperidin-4-yl)methanamine]	–	1.21	0.03	–
COc1ccc(-c2ccc3cc(-c4ccnc(N5CCC(CN)CC5)n4)ccc3c2)cc1 [1-(1-{4-[6-(4-methoxyphenyl)-2-naphthyl]pyrimidin-2-yl}piperidin-4-yl)methanamine]	–	–	1.9	–
NCC1CCN(c2nccc(-c3ccc4cc(CN5CCOCC5)ccc4c3)n2)CC1 [1-(1-{4-[6-(morpholin-4-ylmethyl)-2-naphthyl]pyrimidin-2-yl}piperidin-4-yl)methanamine]	–	1.1	–	–
NCC1CCN(c2nccc(-c3ccc4cc(CN5CCCCC5)ccc4c3)n2)CC1 [1-(1-{4-[6-(piperidin-1-ylmethyl)-2-naphthyl]pyrimidin-2-yl}piperidin-4-yl)methanamine]	–	1.4	–	–
NCC1CCN(C(=O)c2nccc(-c3ccc4ccccc4c3)n2)CC1 [1-(1-{[4-(2-naphthyl)pyrimidin-2-yl]carbonyl}piperidin-4-yl)methanamine]	1.380 fold	0.46	1.42	–
NCC1CCN(Cc2nccc(-c3ccc4ccccc4c3)n2)CC1 [1-(1-{[4-(2-naphthyl)pyrimidin-2-yl]methyl}piperidin-4-yl)methanamine]	–	1.41	1.77	–
CS(=O)(=O)N1CCCN(c2nccc(-c3ccc4ccccc4c3)n2)CC1 [1-(methylsulfonyl)-4-[4-(2-naphthyl)pyrimidin-2-yl]-1,4-diazepane]	1.510 fold	–	1.59	EC50 (Homo sapiens, U2OS): 5.61 µM
NC[C@H]1CC[C@H](Oc2nccc(-c3ccc4ccccc4c3)n2)CC1 [1-(trans-4-{[4-(2-naphthyl)pyrimidin-2-yl]oxy}cyclohexyl)methanamine]	–	–	–	EC50 (Homo sapiens, U2OS): 0.46 µM
c1ccc2cc(-c3ccnc(N4CCC(CN5CCCCCC5)CC4)n3)ccc2c1 [1-({1-[4-(2-naphthyl)pyrimidin-2-yl]piperidin-4-yl}methyl)azepane]	–	1.45	–	–
O=C1CCCCN1CC1CCN(c2nccc(-c3ccc4ccccc4c3)n2)CC1 [1-({1-[4-(2-naphthyl)pyrimidin-2-yl]piperidin-4-yl}methyl)piperidin-2-one]	–	1.55	0.73	–
O=C1CCCN1CC1CCN(c2nccc(-c3ccc4ccccc4c3)n2)CC1 [1-({1-[4-(2-naphthyl)pyrimidin-2-yl]piperidin-4-yl}methyl)pyrrolidin-2-one]	–	1.33	0.81	–
c1ccc2cc(-c3ccnc(N4CCC(CN5CCCCCC5)C4)n3)ccc2c1 (stereo not drawn) [1-({1-[4-(2-naphthyl)pyrimidin-2-yl]pyrrolidin-3-yl}methyl)azepane]	2.260 fold	2.33	–	–
OC1CCN(CC2CCN(c3nccc(-c4ccc5ccccc5c4)n3)C2)CC1 (stereo not drawn) [1-({1-[4-(2-naphthyl)pyrimidin-2-yl]pyrrolidin-3-yl}methyl)piperidin-4-ol]	2.680 fold	3.52	0.1	EC50 (Homo sapiens, U2OS): 5.53 µM
